Patent US20030129222A1, “Liposomal imexon” (priority 2000, published 2003)
Read-outs that look alike come from different tables or passages of the source.

Experiments:
[1] = test system: WiDr colon, Sens; test: Cytotoxicity in tumor cell culture, SRB assay; type: cell-based; details: read-out: IC50 against human mouse tumors, WiDr colon Sens
From the text: (§1) Relative potencies of the N-substituted 2-cyanoaziridine-1-carboxamides in a panel of tumor cell cultures are compared in Table 3. This panel includes the following lines of human tumor cells: sensitive and imexon-resistant lines of multiple myeloma (Matsuoka et al., 1967); ovarian carcinoma resistant to standard drugs (Hamilton et al., 1984); melanoma with a slow growth fraction (Girard et al., 1973); breast carcinoma including sensitive, doxorubicin-resistant (P-glycoprotein-positive) (Taylor et al., 1991), and mitoxantrone-resistant (P-glycoprotein-negative) (Futscher et al., 1994) lines; sensitive and multidrug-resistant colon carcinoma (Noguchi et al., 1979; Dalton et al., 1988); and multidrug-resistant lung carcinoma (P-glycoprotein-negative) (Girard et al., 1973). It also has sensitive (Goldin et al., 1961) and multidrug-resistant (P-glycoprotein-positive) (Salmon and Hersh, 1994) murine L1210 leukemia cells.

[2] = test system: 8226 myeloma, Res (imexon-resistant); test: Cytotoxicity in tumor cell culture, SRB assay; type: cell-based; details: line made resistant to imexon; read-out: IC50 against human mouse tumors, 8226 myeloma Res
From the text: as §1

[3] = test system: WiDr colon, res; test: Cytotoxicity in tumor cell culture, SRB assay; type: cell-based; details: multidrug-resistant; read-out: IC50 against human mouse tumors, WiDr colon res
From the text: as §1

[4] = substituent constant, from Hansch and Leo or calculated using Clog P software; cited from earlier work
[5] = test system: MCF7 breast, mitox (mitoxantrone-resistant); test: Cytotoxicity in tumor cell culture, SRB assay; type: cell-based, human; details: mitoxantrone-resistant; read-out: IC50 against human mouse tumors, MCF7 breast mitox
From the text: as §1

[6] = test system: A375 melan; test: Cytotoxicity in tumor cell culture, SRB assay; type: cell-based, human; details: read-out: IC50 against human mouse tumors, A375 melan
From the text: as §1

[7] = test system: MCF7 breast, Dox (doxorubicin-resistant); test: Cytotoxicity in tumor cell culture, SRB assay; type: cell-based, human; details: doxorubicin-resistant; read-out: IC50 against human mouse tumors, MCF7 breast Dox
From the text: as §1

[8] = test system: 8226 myeloma, Sens (drug-sensitive); test: Cytotoxicity in tumor cell culture, SRB assay; type: cell-based, human
From the text: as §1

[9] = test system: A-549 lung; test: Cytotoxicity in tumor cell culture, SRB assay; type: cell-based, human; details: read-out: IC50 against human mouse tumors, A-549 lung
From the text: as §1

[10] = test system: OVCAR3 ovarian; test: Cytotoxicity in tumor cell culture, SRB assay; type: cell-based, human; details: read-out: IC50 against human mouse tumors, OVCAR3 ovarian
From the text: as §1

[11] = test system: MCF7 breast, Sens; test: Cytotoxicity in tumor cell culture, SRB assay; type: cell-based, human; details: read-out: IC50 against human mouse tumors, MCF7 breast Sens
From the text: as §1

[12] = test system: L1210 leukemia, Mdr; test: Cytotoxicity in tumor cell culture, MTT assay; type: cell-based, murine; details: MTT assay, multidrug-resistant; read-out: IC50 against human mouse tumors, L1210 leukemia Mdr
From the text: as §1

[13] = test system: L1210 leukemia, Sens; test: Cytotoxicity in tumor cell culture, MTT assay; type: cell-based, murine; details: MTT assay; read-out: IC50 against human mouse tumors, L1210 leukemia Sens
From the text: as §1

[14] = against sensitive myeloma, values repeated from Table 3 (μM there), read-out: IC50
[15] = drug-sensitive line, read-out: IC50 against human mouse tumors, 8226 myeloma Sens

SMILES	IC50 [1] [µM]	IC50 [2] [µM]	IC50 [3] [µM]	π [4]	IC50 [5] [µM]	IC50 [6] [µM]	IC50 [7] [µM]	Log(1/C) ([8]; against sensitive myeloma)	IC50 [8, 14] [µM]	IC50 [8, 15] [µM]	IC50 [9] [µM]	IC50 [10] [µM]	IC50 [11] [µM]	IC50 [12] [µM]	IC50 [13] [µM]
CCNC(=O)N1CC1C#N (stereo not drawn) [Compound 7, 2-Cyanoaziridine-1-(N-ethyl) carboxamide]	4	26	7	1.02	10	36	20	4.66	22	22	18	14	29	14	14
N#CC1CN1C(=O)Nc1ccc(F)cc1 (stereo not drawn) [Compound 14, 2-Cyanoaziridine-1-[N-(4-fluorophenyl)]carboxamide]	2.1	5.9	9	2.14	2.7	3.4	2.4	5.30	5	5	6.2	5.9	1.9	5.9	7.3
CC(C)(C)NC(=O)N1CC1C#N (stereo not drawn) [Compound 9, 2-Cyanoaziridine-1-(N-t-butyl) carboxamide]	180	216	> 300	1.98	120	418	190	3.92	120	120	180	186	> 300	457	132
N#CC1CN1C(=O)Nc1ccc(C(F)(F)F)cc1 (stereo not drawn) [Compound 15, 2-Cyanoaziridine-1-[N-(4-trifluorophenyl)]carboxamide]	1.3	7.8	5.8	2.88	1.3	11.8	1.4	5.09	8.2	8.2	4.3	5.9	1.5	7.1	7.8
N#CC1CN1C(=O)Nc1cccnc1 (stereo not drawn) [Compound 24, 2-Cyanoaziridine-1-[N-(3-pyridyl)]carboxamide]	6	15	18	0.32	5.4	12	6.6	4.95	12	12	16	10	4.2	16	11
N#CC1CN1C(=O)Nc1ccc(Cl)c(Cl)c1 (stereo not drawn) [Compound 18, 2-Cyanoaziridine-1-[N-(3,4-dichlorophenyl)]carboxamide]	7	2.7	14	3.42	4.4	5.9	7.2	5.96	1.1	1.1	7.5	5.6	4.6	7.2	2.6
N#CC1CN1C(=O)Nc1ccc([N+](=O)[O-])cc1 (stereo not drawn) [Compound 16, 2-Cyanoaziridine-1-[N-(4-nitrophenyl)]carboxamide]	4.3	8.6	3.7	1.72	3	3.9	3	5.04	9.1	9.1	3.9	6.5	3	2.6	2.6
N#CC1CN1C(=O)Nc1cccc2ccccc12 (stereo not drawn) [Compound 23, 2-Cyanoaziridine-1-[N-(1-naphthyl)]carboxamide]	2.4	8.9	2.5	3.32	2	4.2	1.7	5.10	8	8	2.5	5.9	2	2.5	7.2
N#CC1CN1C(=O)NCc1ccccc1 (stereo not drawn) [Compound 11, 2-Cyanoaziridine-1-(N-benzyl) carboxamide]	5.3	11	10	2.50	3.4	11	6	5.05	9	9	7.4	5	7.4	10	3.8
CC(=O)Oc1ccccc1NC(=O)N1CC1C#N (stereo not drawn) [Compound 21, 2-Cyanoaziridine-1-[N-(2-acetoxyphenyl)]carboxamide]	3.3	9.6	9	1.45	3.5	7.9	3.2	5.06	8.7	8.7	5.6	10	3.6	7.9	9.6
N#CC1CN1C(=O)NC1CCCCC1 (stereo not drawn) [Compound 10, 2-Cyanoaziridine-1-(N-cyclohexyl) carboxamide]	2.4	98	12	2.51	9.8	35	8.9	4.44	36	36	10	31	13	16	7.4
